Measurements from patent publication US8658677B2, “Pyridyl-2-methylamino compounds, compositions and uses thereof” (Aria Neurosciences Inc., priority 2011, dated 2014).
“Also recorded” adds a separate entry of the source.

What was measured:
APP [1] = assay: Acute treatment experiment: brain soluble Aβ40, APP, C99 and C83; type: in vivo, mice; conditions: five days ip, ARN2966 50 mg/kg/day, Compound E 3 mg/kg/day
Description: Furthermore, we conducted an acute treatment experiment where six months old female APPSW/PS1dE9 mice (n=3/group) were treated for five days with ARN2966 (50 mg/kg/day), Compound E (3 mg/kg/day) or Vehicle injected intraperitoneally. Mice were killed three hours after the last injections. The level of soluble Aβ40 was measured in the brain aliquots following diethylamine (DEA) extraction. It was lower in ARN2966 and Compound E treated groups by 39% (p<0.05) and 60% (p<0.05) comparing to vehicle treated mice, respectively (p<0.05; FIG. 6E).
FIGS. 6.(A, B) ARN2966 treatment reduces load of Aβ plaques (n=10 ARN2966, n=15 Vehicle). (B) Representative photomicrograph of Th-S stained brain sections from vehicle and ARN2966 treated 10 month old, female APPSW/PS1dE9reveal a difference in the load of Aβ plaques. […] (D) Reduced Aβ40 and Aβ42 levels in FA extracted brain homogenate, which represent the total brain content of Aβ peptides in ARN2966 treated animals (ELISA). (E) Reduced soluble Aβ40 level in DEA extracted brain homogenate, of ARN2966 and Compound E treated mice (ELISA). […] Aβ concentrations in (C) (D) and (E) are given per gram of wet brain. All values are given as mean±SEM. Statistical analysis was done using two-tailed unpaired t-test, following confirmation of normal distribution of data using Shapiro-Wilk test.

APP [2] = assay: APP, C99, C83 and sAPP levels in 751APPSW CHO cells (immunoblot, immunostaining); type: cell-based, human; conditions: 751APPSW CHO clone
Aβ40 [3] = target: T1, Aβ40 (Homo sapiens, UniProt P05067); assay: Thioflavin-T fibrillization assay; type: biochemical
T1 construct: host or cells: chemical solid-phase peptide synthesis (no expression host)
Text: Synthetic Aβ 1-40 peptide (sequence: […]) was synthesized at the W.M. Keck Foundation Facility (Yale University, New Haven, Conn.) by solid-phase technique on a p-methyl-benzhydrylamine resin, using a Biosearch SAM 2 synthesizer and purified by high performance liquid chromatography (HPLC) with the use of a reverse-phase support medium (Delta-Bondapak) on a 0.78×30 cm column with a 0-66% linear gradient of acetonitrile in 0.1% (v/v) trifluroacetic acid, as previously described. The peptide content of the eluate was monitored by measurement of its absorption at 214 nm. To verify the sequence and purity of the peptide, linear, time-of-flight mass spectrometry was performed at the Skirball Institute at New York University. For aggregation studies the peptide was diluted in 1,1,1,3,3,3-hexafluoro-2-propanol (HFIP; Sigma St. Loius, Mo.) at a concentration of 10 mM/mL, aliquoted and lyophilized. HFIP treatment renders peptides monomeric with minimal β-sheet content. Lyophilized peptides were stored at −80° C. and resuspended immediately prior to each experiment in the appropriate diluent.
The effect of compounds of the present invention on aggregation of Aβ 1-40 peptide was tested using a Thioflavin-T assay according to previously published methods. Aggregation of Aβ 1-40 incubated alone was measured for comparison. Aβ 1-40 was HFIP treated (as described above) and reconstituted in 100 mM Tris buffer (pH 7.4) to obtain a 100 μmol/L concentration. Stock of investigational compounds (50 mmol/L stock diluted in DMSO) was added to Aβ 1-40 to achieve of a concentration 10 or 100 μmol/L of investigational compound in 100 μmol/L of Aβ 1-40. All incubations were performed over a period of 7 days at 37° C. and the incubation mixture was slowly mixed for 6 hours every 24 h. At the conclusion of the experiment samples containing 15 μg of Aβ 1-40 with and without investigational compounds were added to 1 mL of 50 mM glycine, pH 9.2 and 2 μM of Thioflavin-T (Sigma Chemical, Co.; St. Louis, Mo.). Fluorescence was measured at an excitation of 435 nm and an emission of 485 nm in a Perkin-Elmer LS-50B fluorescence spectrophotometer (Perkin Elmer Instruments, Shelton, Conn.). A time scan of fluorescence was performed and three values after the decay reached a plateau (280, 290, 300 seconds) were averaged. The background fluorescence of 40 μL of Tris buffer added to 2 μM/L of Thioflavin-T solution was subtracted. Samples were run in duplicate. Differences in amount of fibrils formed in the presence of investigational compounds were evaluated by means of one-way ANOVA followed by a Dunnet post-hoc test using Statistica (version 6.1, StatSoft Inc., OK).
(§1) […] monomerized synthetic Aβ40 was incubated in 0.1M Tris pH 7.0, T=37° C. for 8 days in the presence of 0-100 μM concentration of compounds. […] An arrow indicates Aβ monomers clustered in ill developed protofibril. (C) Oligomerization assay. ARN4261 and ARN4224 reduced the amount of Aβ oligomers by 78% and 74%, respectively p<0.001. A compound 69b (GKLVFNmgA) was used as a positive control. 69b is homologous to Aβ sequence 17-21 and contains N-methyl glycine (Nmg), which renders it capable of anti-fibrillization and anti-oligomerization effect. (D) Principle of oligomerization assay. 100 μM Aβ40 was aggregated alone or with the addition of 10 μM of tested compounds [1:10 compound: Ab ratio] for 24 h in conditions promoting oligomers assembly, i.e., DMEM/F-12 medium+0.2% SDS, T=4° C. Prior to SDS-PAGE in non-reducing conditions samples were treated with glutaraldehyde. A strong smear of Aβ oligomers is seen between 37 and 70 KDa markers (arrows) in lane 2, and a dense band below the 25 KDa marker reflects Aβ monomers non-dissociated by 10% polyacrylamide gel. No oligomers above 37 KDa marker are seen in lane 1 containing only Aβ monomers run as a control. […] (E) TEM of Aβ oligomers. […] Yellow arrowhead indicates smaller oligomers.

Aβ40 [4] = target: T1, Aβ40; assay: Oligomerization assay; type: biochemical; conditions: 100 μM Aβ40, 10 μM compound, 24 h; for amount of oligomers on SDS-PAGE: lanes 3-5
Description: as §1

[5] = test system: SK-N-SH human neuroblastoma cells; assay: Toxicity by MTT cell viability and LDH release assays; type: cell-based; conditions: 100 μM
Description: The effect of 0.01-100 μmol/L concentrations of investigational compounds was tested on the viability of the N2a murine neuroblastoma cell line (American Type Culture Collection, Manassas, Va.). N2a cells were grown in Eagle's minimal essential medium with the addition of 10% fetal bovine serum, streptomycin and gentomycin (Sigma, St. Louis, Mo.), harvested with 2% trypsin and plated at 10,000 cells/100 μL per well in flatbottom, 96-well microtiter plates. The cells were allowed to attach to the plate overnight in an incubator (37° C., 5% CO2) and in the following morning stocks of investigational compounds (50 mmol/L stock diluted in DMSO) were added to cells to achieve the final concentration 0.01-100 μmol/L. Adequate amounts of DMSO (Dimethyl sulfoxide, Sigma, St. Louis, Mo.) were added to control cells. Cells were grown in the presence of investigational compounds for 48 h and then their viability was assessed using a metabolic assay, which is based on cleavage of the yellow tetrazolium salt (MTT) to purple formazan crystals by viable cells. The MTT assay (Roche Molecular Biochemicals, Indianapolis, Ind.) was performed according to the manufacturer's instructions. The results from cell culture neurotoxicity studies were evaluated by one-way analysis of variance, followed by a Dunnett's test as a post hoc analysis.
As shown in FIG. 2 (MTT assay), the compounds were tested for toxicity in SK-N-SH human neuroblastoma cells using MTT cell viability and LDH release (membrane integrity) assays.

T1 sequence (P05067 672-711): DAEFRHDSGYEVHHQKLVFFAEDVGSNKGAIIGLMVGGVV

Question: Which results are given for `C[C@H](NC(=O)Cc1cc(F)cc(F)c1)C(=O)N[C@H]1N=C(c2ccccc2)c2ccccc2N(C)C1=O` [Compound E, (S,S)-2-[2-(3,5-difluorophenyl)-acetylamino]-N-(1-methyl-2-oxo-5-phenyl-2,3-dihydro-1H-benzo[e][1,4]diazepin-3-yl)-propionamide, reference compound]?
Answer: APP, C99 and C83 signal in brain homogenate (western immunoblotting) (APP [1]): modest increase in C99 and C83 signal; lowering of soluble Aβ40 (DEA extraction) in brain vs vehicle (APP [1]; killed three hours after last injection): 60%; level of APP FL, C99 and C83 in cell lysates (APP [2]): some accumulation of APP FL, and substantial accumulation of C99 and C83; also recorded: modestly increased the APP FL level and substantially increased levels of C83 and C99; sAPP (sAPPα and total sAPP stub) in conditioned media (APP [2]): increased level of sAPP stubs

Question: `C[C@H](NC(=O)Cc1cc(F)cc(F)c1)C(=O)N[C@H](C(=O)OC(C)(C)C)c1ccccc1` [Compound D, N-[N-(3,5-difluorophenacetyl)-L-alanyl]-S-phenylglycine t-butyl ester, reference compound] was tested. Which “level of APP FL, C99 and C83 in cell lysates” value (APP [2]) did it give?
Answer: The value was “some accumulation of APP FL, and substantial accumulation of C99 and C83; also recorded: modestly increased the APP FL level and substantially increased levels of C83 and C99”.

Question: Which results are given for `COc1ccc(/C=N/Nc2nc3ccccc3n2C)cc1O` [ARN4224]?
Answer: EC50 (Aβ40 [3]; 100 μM HFIP monomerized synthetic Aβ40, 0.1M Tris pH 7.0, 37° C., 8 days, 0-100 μM compound, read-out: EC50 of fibril reduction): 44 µM; Emax (Aβ40 [3]; pH 7, read-out: EMAX (% of maximal fibril reduction)): 55%; reduction of the amount of Aβ oligomers (Aβ40 [4]; DMEM/F-12 + 0.2% SDS, 4° C.): 74%; amount of oligomers on SDS-PAGE (Aβ40 [4]): reduced amount of oligomers; toxicity in both MTT and LDH release assays [5]: showed toxicity

Question: For GKLVFNmgA [69b, reference compound], which “amount of oligomers on SDS-PAGE” value (Aβ40 [4]) is on record?
Answer: The value was “reduced amount of oligomers”.
